Results: PMC6831628, “Steady-state activation of the high-affinity isoform of the α4β2δ GABAA receptor” (Scientific Reports, 2019)
Where “and” joins values, the source holds several entries; their conditions need not be identical. Equal values may be shown once. Read-outs that look alike come from different tables or passages of the source.

Columns and labels:
[1] = target: T1, human α4β2δ GABAA receptors (Homo sapiens, UniProt P47870+P48169); assay: two-electrode voltage clamp of α4β2δ GABAA receptors expressed in Xenopus laevis oocytes (RAD model analysis); assay type: cell-based; details: for EC50: Hill equation; for EC50 / Hill coefficient: mean ± S.D.; for Q (=A/D), equilibrium between active and desensitized states: steady-state currents fitted to Eq. (2), K and c constrained to peak values; for maximal peak open probability (POpen,peak): theoretical/predicted maximum from L, c and N; for calculated steady-state POpen: Eq. (4); for contribution towards stabilization of the open state: N×RT×ln(c), GABA 2 sites, propofol 4 sites
T1 construct: expressed in transfected cells; host or cells: Xenopus laevis oocytes injected with cRNA, 5:1:5 (α4:β2:δ)
Procedure: The human α4β2δ GABAA receptors were expressed in Xenopus laevis oocytes. Harvesting of oocytes was conducted under the Guide for the Care and Use of Laboratory Animals as adopted and promulgated by the National Institutes of Health. The animal protocol was approved by the Animal Studies Committee of Washington University in St. Louis (Approval No. 20170071).
The cDNAs of individual subunits in the pcDNA3 vector were linearized with Xba I (NEB Labs, Ipswich, MA). The cRNAs were generated using mMessage mMachine (Ambion, Austin, TX). The oocytes were injected with a total of 11 ng cRNA per oocyte in a 5:1:5 (α4:β2:δ) ratio. Following injection, the oocytes were incubated in bath solution (96 mM NaCl, 2 mM KCl, 1.8 mM CaCl2, 1 mM MgCl2, and 5 mM HEPES; pH 7.4) plus supplements (2.5 mM Na pyruvate, 100 U/ml penicillin, 100 μg/ml streptomycin, and 50 μg/ml gentamycin) at 15 °C for 3–4 days prior to conducting electrophysiological recordings.
The recordings were conducted at room temperature using standard two-electrode voltage clamp. The pipets were filled with 3 M KCl. The oocytes were clamped at −60 mV. The chamber (RC-1Z, Warner Instruments, Hamden, CT) was perfused with bath solution (see above) at 5–8 ml/min. Solutions were gravity-applied from 30-ml glass syringes with glass luer slips via Teflon tubing, and switched manually.
The current responses were amplified with an Axoclamp 900A (Molecular Devices, Sunnyvale, CA) or OC-725C amplifier (Warner Instruments, Hamden, CT), digitized with a Digidata 1320 or 1200 series digitizer (Molecular Devices), and stored using pClamp (Molecular Devices).
In such cases, the number of cell provided is given as a range of cell numbers for each concentration point. […] The level of constitutive activity was determined by exposing the cells to 100–300 μM picrotoxin.
The current traces were analyzed using Clampfit (Molecular Devices) to determine the amplitudes of peak and steady-state responses. If steady-state (defined as ΔI < 2% during the last 20 s of agonist application) was not reached by the end of the agonist application, an estimate was made by exponential fitting of the current decay. Fitting was done using pClamp, to a single exponential or sums of up to three exponentials. The constant offset is reported as the steady-state response.

[2] = system: receptors resulting from the expression of α4, β (β2 or β3), and δ subunits; details: cited from earlier work
α1β2γ2L GABAA receptor = details: cited from earlier work
α4β3δ receptors = details: oocytes, cited from earlier work
[3] = target: α1β2γ2L receptor with β2(Y205S) mutation (Homo sapiens, UniProt P14867+P47870, Y229S); assay: activation of α1β2γ2L receptor carrying the β2(Y205S) mutation; assay type: cell-based; details: data not shown
[4] = target: T2, α4β2δ receptor with β2(Y205S) mutation (Homo sapiens, UniProt P47870+P48169, Y229S); assay: activation of α4β2δ receptor carrying the β2(Y205S) mutation; assay type: cell-based; details: data not shown
T2 construct: expressed in transfected cells; host or cells: Xenopus laevis oocytes (inferred from the Methods on α4β2δ)

[5] = peak currents fitted to Eq. (1)

T1 sequence (P48169 36-554): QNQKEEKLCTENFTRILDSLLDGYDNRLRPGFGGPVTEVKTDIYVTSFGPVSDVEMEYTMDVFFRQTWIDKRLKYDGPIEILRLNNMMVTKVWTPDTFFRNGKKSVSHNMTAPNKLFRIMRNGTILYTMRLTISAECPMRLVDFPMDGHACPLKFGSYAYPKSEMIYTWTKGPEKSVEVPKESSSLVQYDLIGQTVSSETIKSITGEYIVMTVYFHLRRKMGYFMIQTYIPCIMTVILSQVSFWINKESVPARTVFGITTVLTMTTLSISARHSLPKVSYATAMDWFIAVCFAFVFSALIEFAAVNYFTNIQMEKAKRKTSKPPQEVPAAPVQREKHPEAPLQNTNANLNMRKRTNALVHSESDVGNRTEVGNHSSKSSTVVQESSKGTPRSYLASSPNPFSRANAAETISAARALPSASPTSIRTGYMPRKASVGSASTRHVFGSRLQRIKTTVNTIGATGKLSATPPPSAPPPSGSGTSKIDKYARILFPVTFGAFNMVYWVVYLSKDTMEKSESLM
T1 sequence (P47870 25-512 limits assumed): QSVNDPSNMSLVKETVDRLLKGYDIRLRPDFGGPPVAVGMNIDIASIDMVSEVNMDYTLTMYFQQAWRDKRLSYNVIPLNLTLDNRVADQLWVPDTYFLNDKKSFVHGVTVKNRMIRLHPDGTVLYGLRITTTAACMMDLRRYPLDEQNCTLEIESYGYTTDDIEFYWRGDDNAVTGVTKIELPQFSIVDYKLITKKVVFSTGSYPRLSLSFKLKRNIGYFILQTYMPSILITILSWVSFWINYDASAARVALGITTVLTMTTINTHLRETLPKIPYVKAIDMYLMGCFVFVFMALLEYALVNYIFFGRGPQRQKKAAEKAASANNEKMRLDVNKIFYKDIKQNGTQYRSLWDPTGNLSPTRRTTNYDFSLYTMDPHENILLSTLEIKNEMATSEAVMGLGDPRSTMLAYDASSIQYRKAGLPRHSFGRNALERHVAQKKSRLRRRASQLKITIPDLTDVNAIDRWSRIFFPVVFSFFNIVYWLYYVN
T1 sequence (O14764 25-452 partner): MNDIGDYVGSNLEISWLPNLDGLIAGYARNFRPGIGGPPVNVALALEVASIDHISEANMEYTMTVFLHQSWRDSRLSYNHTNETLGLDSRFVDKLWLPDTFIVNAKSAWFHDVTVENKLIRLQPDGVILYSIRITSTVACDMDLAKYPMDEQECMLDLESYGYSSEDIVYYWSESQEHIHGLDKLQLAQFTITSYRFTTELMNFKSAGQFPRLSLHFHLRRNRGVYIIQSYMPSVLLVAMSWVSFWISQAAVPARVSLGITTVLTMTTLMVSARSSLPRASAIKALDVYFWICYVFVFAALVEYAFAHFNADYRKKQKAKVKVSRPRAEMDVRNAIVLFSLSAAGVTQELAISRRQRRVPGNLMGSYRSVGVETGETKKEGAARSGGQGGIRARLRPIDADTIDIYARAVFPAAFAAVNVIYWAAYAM
α1β2γ2L receptor with β2(Y205S) mutation, sequence (P14867 28-456): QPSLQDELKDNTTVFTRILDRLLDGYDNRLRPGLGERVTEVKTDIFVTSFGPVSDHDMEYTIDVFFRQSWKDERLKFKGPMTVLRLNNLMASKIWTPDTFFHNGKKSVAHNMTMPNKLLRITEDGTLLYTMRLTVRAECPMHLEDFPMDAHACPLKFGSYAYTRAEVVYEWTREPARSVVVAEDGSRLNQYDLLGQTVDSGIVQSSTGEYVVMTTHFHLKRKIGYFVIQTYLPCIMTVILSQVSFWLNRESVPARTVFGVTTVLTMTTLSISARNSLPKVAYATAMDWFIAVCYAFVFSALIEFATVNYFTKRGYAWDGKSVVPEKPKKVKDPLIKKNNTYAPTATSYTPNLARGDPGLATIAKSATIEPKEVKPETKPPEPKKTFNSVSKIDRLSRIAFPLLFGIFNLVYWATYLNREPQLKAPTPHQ
α1β2γ2L receptor with β2(Y205S) mutation, sequence (P47870 25-512 Y229S limits assumed): as the sequence (P47870 25-512 limits assumed) above, with Y205S counted along it
α1β2γ2L receptor with β2(Y205S) mutation, sequence (P18507 40-475 partner): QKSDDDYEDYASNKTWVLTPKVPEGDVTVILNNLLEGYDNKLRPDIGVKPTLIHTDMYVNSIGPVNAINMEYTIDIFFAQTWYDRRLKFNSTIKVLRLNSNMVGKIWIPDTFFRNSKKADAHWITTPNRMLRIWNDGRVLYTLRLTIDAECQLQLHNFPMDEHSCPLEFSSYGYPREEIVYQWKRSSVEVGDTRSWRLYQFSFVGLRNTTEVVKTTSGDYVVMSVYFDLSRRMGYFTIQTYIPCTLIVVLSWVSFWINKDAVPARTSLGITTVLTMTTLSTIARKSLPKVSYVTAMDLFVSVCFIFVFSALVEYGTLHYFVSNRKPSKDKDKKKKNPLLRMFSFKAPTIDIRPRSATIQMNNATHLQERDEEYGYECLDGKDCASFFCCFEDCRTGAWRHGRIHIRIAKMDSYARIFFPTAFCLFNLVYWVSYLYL
T2 sequence (P48169 36-554): as the sequence (P48169 36-554) above
T2 sequence (P47870 25-512 Y229S limits assumed): as the sequence (P47870 25-512 limits assumed) above, with Y205S counted along it
T2 sequence (O14764 25-452 partner): as the sequence (O14764 25-452 partner) above

CC(=O)[C@H]1CC[C@H]2[C@@H]3CC[C@H]4C[C@H](O)CC[C@]4(C)[C@H]3CC[C@]12C [3α5αP, allopregnanolone]
Kd [1]: 0.21 ± 0.04 µM
EC50 ([1]; EC50, peak currents): 0.23 ± 0.1 µM
cX, ratio of equilibrium dissociation constant of the open receptor to KX [1, 5]: 0.68 ± 0.01
Hill coefficient ([1]; peak currents): 1.17 ± 0.30
Q (=A/D), equilibrium between active and desensitized states [1]: 0.89 ± 0.33 and 0.89
maximal peak open probability (POpen,peak) [1]: ~ 0.2
maximal peak open probability (POpen,peak) ([1]; listed as allopregnanolone): 0.2

O=C(Nc1c(-c2cccs2)nc2ccccn12)c1ccc(Cl)cc1 [DS-2]
effect of DS-2 ([2]; high-affinity isoform): directly activated
effect of DS2 ([2]; low-affinity isoform): potentiated but not directly activated
direct activation ([1]; isoform investigated in the present study): directly activated

NCCCC(=O)O [GABA]
stabilization energy from binding of two GABA molecules (α1β2γ2L GABAA receptor): 6.4 to 7.5 kcal/mol
calculated steady-state POpen ([1]; 30 nM GABA): 0.24
open probability (peak) ([1]; 0.3 μM GABA, relative to PTX (0) and 10 μM GABA + 50 μM propofol (1)): 0.35 ± 0.09
contribution towards stabilization of the open state [1]: 0.94 kcal/mol
Hill coefficient ([1]; peak currents): 0.80 ± 0.09
steady-state open probability (POpen,S.S.) ([1]; saturating GABA): ~0.3
Q (=A/D), equilibrium between active and desensitized states [1]: 0.78 ± 0.08 and 0.78
maximal peak open probability (POpen,peak) [1]: 0.44 and 0.42 and 0.4 and ~ 0.4

O=c1[nH]oc2c1CCNC2 [THIP]
EC50 (α4β3δ receptors; read-out: high-affinity component of concentration-response curve): < 0.1 µM
EC50 (α4β3δ receptors; read-out: low-affinity component of concentration-response curve): > 10 µM

CC(C)c1cccc(C(C)C)c1O [propofol]
predicted POpen,S.S. after addition of propofol ([1]; 1 μM propofol added to 30 nM GABA, 10 μM taurine, 30 nM 3α5αP, 0.1 μM PS): 0.28
peak response to 0.3 μM GABA with coapplied propofol ([1]; 1 μM propofol, peak response): 151 ± 12 % of control
steady-state response to 0.3 μM GABA with propofol ([1]; 1 μM propofol, steady-state response): 145 ± 14 % of control
EC50 ([1]; EC50, peak currents): 7.3 ± 2 µM
Kd ([1]; KX, equilibrium dissociation constant of the resting receptor, peak currents fitted to Eq. (1), best-fit ± S.E. of the fit): 55.1 µM and > 50 µM
contribution towards stabilization of the open state [1]: 4.3 kcal/mol
cX, ratio of equilibrium dissociation constant of the open receptor to KX [1, 5]: 0.16 ± 0.01
Hill coefficient ([1]; peak currents): 2.17 ± 0.65
Q (=A/D), equilibrium between active and desensitized states [1]: 1.29 ± 0.14 and 1.29
maximal peak open probability (POpen,peak) [1]: 0.99 and ~ 0.99

NCCS(=O)(=O)O [taurine, 2-aminoethanesulfonic acid]
activation by taurine [3]: < 0.2 % of the response to GABA + propofol
activation by taurine [4]: < 0.2 % of the response to GABA + propofol
calculated steady-state POpen ([1]; 10 μM taurine): 0.21
Q (=A/D), calculated value ([1]; calculated from steady-state open probability with 1 mM taurine): 0.52
steady-state open probability ([1]; long (190–410 s) applications of 1 mM taurine): 0.23 ± 0.04
cX, ratio of equilibrium dissociation constant of the open receptor to KX [1, 5]: 0.47 ± 0.02
Kd ([1]; peak currents fitted to Eq. (1), best-fit ± S.E. of the fit, read-out: KX, equilibrium dissociation constant of the resting receptor): 10 ± 2.1 µM
EC50 ([1]; peak currents, read-out: EC50): 9.8 µM and 10 µM
Hill coefficient ([1]; peak currents): 0.70 ± 0.08
maximal peak open probability (POpen,peak) [1]: 0.44 and 0.4 and ~ 0.4

pregnenolone sulfate [PS]
dPS (α1β2γ2L GABAA receptor): 0.11
Kd (α1β2γ2L GABAA receptor; read-out: KPS): 1.9 µM
dPS, ratio of equilibrium dissociation constant of the desensitized receptor to KPS ([1]; fit to Eq. (3), 0.3 μM GABA, 1 site): 0.14 ± 0.02
high concentration asymptote ([1]; steady-state current elicited by 0.3 μM GABA): 50 ± 4 % of control
